Experimental findings from patent publication US20120136033A1, “Small Molecule Antagonists of Phosphatidylinositol-3,4,5-Triphosphate (PIP3) and Uses Thereof” (President and Fellows of Harvard College, priority 2009, published 2012) are described below.

In one assay the target is T1, PH123 (Akt PH domain) (Homo sapiens, UniProt P31749).
T1 construct: recombinant 1-123 amino acid N-terminal fragment of human Akt1; made in house; host or cells: E. coli BL21(DE3)
Put plainly: lipid overlay assay of PIP3/PH123 binding.

Assay [1] addresses T2, PH domain of Akt (His6-Akt123) (Homo sapiens, UniProt P31749).
T2 construct: Human Akt PH domain a.a; 1-123; made in house; host or cells: E. coli BL21(DE3)
Put plainly: NMR 2D HSQC 1H-15N binding analysis, His6-Akt123. The procedure: Human Akt PH domain a.a. 1-123 and human PDK1 PH domain a.a. 411-557 were cloned by PCR amplification into Bam HI/Eco RI sites of pGEX-6P-1 vector (GE Healthcare). For NMR experiments, His6-Akt PH123 was prepared by cloning corresponding PCR fragment between Nde I and Eco RI sites of pET-28 vector (Novagen). Recombinant proteins were expressed in BL21(DE3) E. coli. Expression was induced by addition of 100 μM IPTG for 16 hr at 25° C. Proteins were purified using glutathione-sepharose (GE Healthcare) or Ni-NTA beads (Qiagen) according to manufacturer's recommendations and dialyzed overnight against 50 mM Tris-HCl (pH 7.5), 150 mM NaCl, and 5 mM β-mercaptoethanol (b-ME) buffer.
To further characterize the mode of action of PIT-1, NMR-based analyses of PIT-1 binding to the PH domain of Akt were performed. […] PIT-1 was further titrated to identify residues primarily affected by the small molecule binding.

In a further assay the target is Bcl-xL (Homo sapiens, UniProt Q07817). Put plainly: NMR HSQC specificity control, Bcl-xL. The format is binding.
Chain of Bcl-xL (Q07817 whole entry, species assumed): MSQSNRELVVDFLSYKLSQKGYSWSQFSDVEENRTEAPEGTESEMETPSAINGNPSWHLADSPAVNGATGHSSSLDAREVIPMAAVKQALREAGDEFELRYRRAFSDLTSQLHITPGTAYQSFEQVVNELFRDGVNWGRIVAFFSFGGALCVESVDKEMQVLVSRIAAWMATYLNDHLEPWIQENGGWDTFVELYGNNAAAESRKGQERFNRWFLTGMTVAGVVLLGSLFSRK

T2 sequence (P31749 1-123): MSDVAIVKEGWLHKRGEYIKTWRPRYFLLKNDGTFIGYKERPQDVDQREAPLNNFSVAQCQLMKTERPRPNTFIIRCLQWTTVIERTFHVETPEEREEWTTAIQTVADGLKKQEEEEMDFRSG
T1 sequence (P31749 1-123): as above

With `O=C(NC(=S)Nc1cc([N+](=O)[O-])cc(Cl)c1O)c1ccccc1` [PIT-1], the “effect on PIP3/PH123 binding, lipid overlay” value at PH123 (Akt PH domain) is “concentration-dependent inhibitory effect”. Also, the “changes in 2D HSQC spectrum of His6-Akt123” value in assay [1] is listed as “induces significant changes”. The “changes in HSQC spectrum of Bcl-xL” value at Bcl-xL is recorded as “did not elicit any changes”.
